Reference: ChEMBL document CHEMBL3992552, “Mechanisms of action and structure-activity relationships of cytotoxic flavokawain derivatives” (Bioorg Med Chem, 2017)
Active and inactive are the calls of the source. No cut-off for these calls is given here.

How the values were obtained:
Type in all cases: functional
PC-3 [1] = assay: Cell cycle arrest in human PC3 cells assessed as accumulation at M phase by Hoechst staining based fluorescence assay
Huh-7 [2] = assay: Cell cycle arrest in human HuH7 cells assessed as accumulation at M phase by Hoechst staining based fluorescence assay
MDA-MB-231 = assay: Cell cycle arrest in human MDA-MB-231 cells harboring p53 mutant assessed as mitotic index at 25 uM measured after 48 hrs by Hoechst staining based fluorescence assay (reference value: 2.1)
HCT-116 [3] = assay: Cell cycle arrest in human HCT116 cells harboring wild-type p53 assessed as accumulation at M phase at 24 uM measured after 48 hrs by Hoechst staining based fluorescence assay (reference value: 2.3 to […])
HCT-116 [4] = assay: Cell cycle arrest in human HCT116 cells harboring wild-type p53 assessed as accumulation at M phase at 12 uM measured after 48 hrs by Hoechst staining based fluorescence assay (reference value: 2.3 to […])
HCT-116 [5] = assay: Cell cycle arrest in human HCT116 cells harboring wild-type p53 assessed as accumulation at S phase at 24 uM measured after 48 hrs by Hoechst/BrdU staining based fluorescence assay (reference value: 68%)
HCT-116 [6] = assay: Cell cycle arrest in human HCT116 cells harboring wild-type p53 assessed as accumulation at S phase at 12 uM measured after 48 hrs by Hoechst/BrdU staining based fluorescence assay (reference value: 68%)
HaCaT = assay: Cell cycle arrest in human HaCaT cells assessed as accumulation at G1/S phase by Hoechst staining based fluorescence assay
PC-3 [7] = assay: Cell cycle arrest in human PC3 cells assessed as accumulation at G1/S phase by Hoechst staining based fluorescence assay
Huh-7 [8] = assay: Cell cycle arrest in human HuH7 cells assessed as accumulation at G1/S phase by Hoechst staining based fluorescence assay

`COc1cc(OC)c(C(=O)/C=C/c2ccccc2SC)c(OC)c1` was tested, and the Activity (PC-3 [1]) was “Active”, the Activity (Huh-7 [2]) was “Active” and the Activity_index (MDA-MB-231) was 13.2.

`COc1cc(O)c(C(=O)/C=C/c2ccccc2SC)c(OC)c1` was tested, and the Activity (PC-3 [1]) was “Active”, the Activity (Huh-7 [2]) was “Active” and the Activity (MDA-MB-231) was “inactive”.

For `COc1cc(OC)c(C(=O)/C=C/c2ccc(F)cc2)c(OC)c1`, the Activity (PC-3 [1]) was “Active”, the Activity (Huh-7 [2]) was “Active” and the Activity_index (MDA-MB-231) was 4.8.

With `COc1cc(OC)c(C(=O)/C=C/c2ccc(Br)cc2)c(OC)c1` the Activity (PC-3 [1]) was “Active”, the Activity (Huh-7 [2]) was “Active” and the Activity_index (MDA-MB-231) was 3.4.

In the case of `COc1cc(O)c(C(=O)/C=C/c2ccccc2OC)c(OC)c1`, the Activity (PC-3 [1]) is reported as “Active” and the Activity (MDA-MB-231) is reported as “inactive”.

With `COc1cccc(/C=C/C(=O)c2c(OC)cc(OC)cc2OC)c1` the Activity (PC-3 [1]) was “Active”, the Activity (HCT-116 [3]) was 1.2% and the Activity (HCT-116 [4]) was 4.5%. For the same compound, the Activity (HCT-116 [5]) was 0.6%, the Activity (Huh-7 [2]) was “Active” and the Activity_index (MDA-MB-231) was 3.5. It also gave an Activity (HCT-116 [6]) of 20%.

For `COc1cc(O)c(C(=O)/C=C/c2ccc(F)cc2)c(OC)c1`, the Activity (PC-3 [1]) was “Active” and the Activity (MDA-MB-231) was “inactive”.

`COc1cc(O)c(C(=O)/C=C/c2ccccc2)c(OC)c1` [FLAVOKAWAIN B] was tested, and the Activity (HaCaT) was “Active”, the Activity (PC-3 [7]) was “Active” and the Activity_index (MDA-MB-231) was 6.8. The Activity (Huh-7 [8]) was “Active”.

`COc1cc(OC)c(C(=O)/C=C/c2ccccc2)c(OC)c1` was tested, and the Activity (PC-3 [1]) was “Active” and the Activity_index (MDA-MB-231) was 13.2.

With `COc1cccc(/C=C/C(=O)c2c(O)cc(OC)cc2OC)c1` the Activity (PC-3 [1]) was “Active”, the Activity (HaCaT) was “Active” and the Activity_index (MDA-MB-231) was 3.6. For the same compound, the Activity (Huh-7 [8]) was “Active”.
